In ChEMBL document CHEMBL3885861, “Open TG-GATES”:

Organism: Rattus norvegicus
Test: Open TG-GATES - Regimen: Single
Assay type: toxicity, organism-based, Sprague-Dawley
Parameters: regimen Single, gender Male, age 6 weeks
Settings: in vivo, po, 100 mg/kg, route gavage, dose level Low; for gamma-GTP / ALP / ALT / AST / BUN / CRE / Ca / Cl / DBIL / GLC / IP / K / LDH / Na / PL / RALB / TBIL / TC / TG / TP: tissue Plasma; for APTT / Bas / Eos / Fbg / Hb / Ht / Lym / MCH / MCHC / MCV / Mono / Neu / PT / Plat / RBC / Ret: tissue Blood; for KIDNEY_L / KIDNEY_R / KIDNEY_TOTAL: tissue Kidney; for LIVER: tissue Liver

COc1ccc2[nH]c([S+]([O-])Cc3ncc(C)c(OC)c3C)nc2c1 (configuration not stated) [OMEPRAZOLE]
gamma-GTP (6 h): 1 IU/L | TERMINAL_BW (9 h): 217.8 g | APTT (9 h): 20.7 s | Bas (9 h): 0% | Eos (9 h): 0.8% | Fbg (9 h): 217.6 mg/dL | Hb (9 h): 12.9 g/dL | Ht (9 h): 37.5% | Lym (9 h): 76.8% | MCH (9 h): 20.9 pg | MCHC (9 h): 34.5% | MCV (9 h): 60.6 fL | Mono (9 h): 3.4% | Neu (9 h): 18.4% | PT (9 h): 12.8 s | Plat (9 h): 130.5 x10_4/uL | RBC (9 h): 620.2 x10_4/ul | Ret (9 h): 6.8% | KIDNEY_L (9 h): 1 g | KIDNEY_R (9 h): 1 g | KIDNEY_TOTAL (9 h): 2.1 g | LIVER (9 h): 9.7 g | ALP (9 h): 826.2 IU/L | ALT (9 h): 28.8 IU/L | AST (9 h): 56.8 IU/L | BUN (9 h): 9 mg/dL | CRE (9 h): 0.3 mg/dL | Ca (9 h): 10.3 mg/dL | Cl (9 h): 101 meq/L | DBIL (9 h): 0.066 mg/dL | GLC (9 h): 197.4 mg/dL | IP (9 h): 10.1 mg/dL | K (9 h): 4 meq/L | LDH (9 h): 171.6 IU/L | Na (9 h): 140 meq/L | PL (9 h): 135.8 mg/dL | RALB (9 h): 3.3 g/dL | TBIL (9 h): 0.1 mg/dL | TC (9 h): 71.2 mg/dL | TG (9 h): 68.6 mg/dL | TP (9 h): 5.4 g/dL | gamma-GTP (9 h): 1 IU/L | TERMINAL_BW (24 h): 234.1 g | APTT (24 h): 19.3 s | Bas (24 h): 0% | Eos (24 h): 1% | Fbg (24 h): 216.2 mg/dL | Hb (24 h): 12.8 g/dL | Ht (24 h): 37.6% | Lym (24 h): 84.4% | MCH (24 h): 21.2 pg | MCHC (24 h): 34% | MCV (24 h): 62.2 fL | Mono (24 h): 2.4% | Neu (24 h): 12% | PT (24 h): 12.6 s | Plat (24 h): 130.1 x10_4/uL | RBC (24 h): 604.8 x10_4/ul | Ret (24 h): 6.9% | KIDNEY_L (24 h): 1 g | KIDNEY_R (24 h): 1.1 g | KIDNEY_TOTAL (24 h): 2.1 g | LIVER (24 h): 11.2 g | ALP (24 h): 851.2 IU/L | ALT (24 h): 28.4 IU/L | AST (24 h): 57.8 IU/L | BUN (24 h): 15.8 mg/dL | CRE (24 h): 0.4 mg/dL | Ca (24 h): 10.6 mg/dL | Cl (24 h): 101 meq/L | DBIL (24 h): 0.092 mg/dL | GLC (24 h): 209.4 mg/dL | IP (24 h): 9.3 mg/dL | K (24 h): 4.4 meq/L | LDH (24 h): 195.8 IU/L | Na (24 h): 140.2 meq/L | PL (24 h): 145.4 mg/dL | RALB (24 h): 3.2 g/dL | TBIL (24 h): 0.1 mg/dL | TC (24 h): 77.8 mg/dL | TG (24 h): 89.8 mg/dL | TP (24 h): 5.3 g/dL
